Data published in article PMC3114813 (Environmental Health Perspectives, 2011).
“Also recorded” adds a separate entry of the source. Read-outs that look alike come from different tables or passages of the source.

What was measured:
MDA-kb2 cells = details: for Cytotoxic EC20 (μM) MDA-kb2: EC20 = concentration that produces a 20% effect
Description: (§1) MDA-kb2 cells are human breast cancer cells stably transfected with a firefly luciferase reporter gene that is driven by an androgen-response element–containing promoter ([Wilson et al. 2002]). Details of the modified assay were published previously ([Ermler et al. 2010]). Briefly, cells were seeded at a concentration of 1 × 10^5 cells/mL in phenol red–free Leibowitz-15 medium (Invitrogen Ltd., Paisley, UK) containing 10% (charcoal-stripped) fetal calf serum (Invitrogen Ltd.) in white luminometer plates and allowed to attach for 24 hr. Cells were then exposed to eight serial dilutions of selected pesticides with or without DHT (0.25 nM). After 24 hr, luciferase activity was determined with SteadyGlo assay reagent (Promega UK Ltd., Southampton, Hampshire, UK) and measured in a plate reader (FLUOstar Optima, BMG Labtech GmbH, Offenburg, Germany). […] All concentrations were tested in duplicate over two plates, and each pesticide was measured at least twice in separate experiments. For comparative purposes, luminescence was normalized to DHT alone at coexposure concentration (maximum response, 100%) and solvent-only (ethanol) controls (minimum response, 0%). […] Pesticides were initially tested over a concentration range of 0.64 nM–50 μM (5× dilutions) as a range-finding exercise. Subsequently, the concentration ranges were modified to reflect the potency and toxicity of each individual compound. […] Sixty percent of the pesticides were repeat tested using the same product but with new stock solutions and by a different experimenter.
(§2) To analyze antiandrogenic action, raw luminescence readings were normalized on a plate-by-plate basis to the means of the positive DHT controls (n = 8) and the solvent controls (n = 8) ([Ermler et al. 2010]). […] Specifically, a variety of nonlinear regression models were fitted independently to the same data set, and the best-fitting model was selected using a statistical goodness-of-fit criterion. […] Data considered to be statistically significant at p < 0.05 were analyzed using the best-fit approach as described above. All statistical analysis was performed using SAS statistical software (SAS Institute Inc., Cary, NC, USA). From the best-fitting model, we derived inhibitory concentrations for antiandrogenicity and effect concentrations for cytotoxicity.

yeast = experiment: YAS, cytotoxicity (turbidity at 620 nm); type: cell-based; details: for Cytotoxic EC20 (μM) YAS: EC20 = concentration that produces a 20% effect, yeast turbidity
Description: The methods for the YAS have been described previously ([Sohoni and Sumpter 1998]). Briefly, stimulation of the transfected AR causes a color change in the media, which is measured by absorbance at 540 nm (Labsystems Multiskan Multisoft, Vienna, VA, USA). Plates were also measured at 620 nm to measure cell growth (turbidity) to check for any cytotoxic effects that may have occurred. Pesticides were coincubated with DHT (6.4 nM). […] Incubation time was 53 hr at 28°C. […] Pesticide serial dilutions were tested in duplicate over two plates and were tested in two separate experiments.

androgen receptor (AR) [1] = molecular target: T1, androgen receptor (AR) (Homo sapiens, UniProt P10275, Q868H); experiment: cell-based; details: for IC20: MDA-kb2, read-out: Antiandrogen IC20 (μM) MDA-kb2
T1 construct: MDA-kb2 cells are human breast cancer cells stably transfected with a firefly luciferase reporter gene; endogenous in cells; host or cells: MDA-kb2 (human breast cancer cells)
T1 sequence (P10275 1-920 Q868H): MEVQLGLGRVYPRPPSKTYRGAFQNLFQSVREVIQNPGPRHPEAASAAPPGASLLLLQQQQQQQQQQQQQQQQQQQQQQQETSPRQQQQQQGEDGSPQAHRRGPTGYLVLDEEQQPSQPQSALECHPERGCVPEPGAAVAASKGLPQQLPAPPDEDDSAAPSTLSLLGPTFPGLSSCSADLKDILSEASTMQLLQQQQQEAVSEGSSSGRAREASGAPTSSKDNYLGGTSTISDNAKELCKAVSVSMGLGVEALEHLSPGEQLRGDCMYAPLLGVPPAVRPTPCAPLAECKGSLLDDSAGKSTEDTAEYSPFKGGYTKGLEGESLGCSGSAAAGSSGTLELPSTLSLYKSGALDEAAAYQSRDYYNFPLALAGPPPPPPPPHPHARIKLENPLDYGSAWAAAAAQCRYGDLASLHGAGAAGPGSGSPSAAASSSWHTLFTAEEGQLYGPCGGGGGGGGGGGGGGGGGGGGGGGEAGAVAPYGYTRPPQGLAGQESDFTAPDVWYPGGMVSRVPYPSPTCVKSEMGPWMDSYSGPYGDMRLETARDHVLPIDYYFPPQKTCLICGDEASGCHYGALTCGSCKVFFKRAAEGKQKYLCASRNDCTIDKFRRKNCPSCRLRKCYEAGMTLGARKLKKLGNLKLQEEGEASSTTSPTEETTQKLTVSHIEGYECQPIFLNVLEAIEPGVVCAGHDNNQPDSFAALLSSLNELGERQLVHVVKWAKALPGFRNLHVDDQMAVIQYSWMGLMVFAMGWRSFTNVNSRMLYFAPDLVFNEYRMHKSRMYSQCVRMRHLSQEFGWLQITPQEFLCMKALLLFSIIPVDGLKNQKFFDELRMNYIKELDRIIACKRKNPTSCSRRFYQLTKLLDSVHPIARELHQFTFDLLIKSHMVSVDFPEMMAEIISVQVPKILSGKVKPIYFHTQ
Description: as §1, §2

androgen receptor (AR) [2] = molecular target: T1, androgen receptor (AR); type: cell-based
Description: as §1, §2

[3] = androgenic in the absence of DHT, Neg = no response was observed
[4] = total exposure score / IC20 (MDA-kb2), recalculated using experimental data

Cc1c(COC(=O)[C@@H]2[C@H](/C=C(\Cl)C(F)(F)F)C2(C)C)cccc1-c1ccccc1 (racemic) [Bifenthrin]
Cytotoxicity in the MDA-kb2 assay (in words) (MDA-kb2 cells): cytotoxic
Cytotoxic EC20 (μM) MDA-kb2 (MDA-kb2 cells): 22.2 µM
Cytotoxic EC20 (μM) YAS (yeast): > 200 µM

COP(=S)(OC)SCn1nnc2ccccc2c1=O [Azinphos-methyl]
Antiandrogenic activity in the MDA-kb2 assay (in words) (androgen receptor (AR) [1]; MDA-kb2 / 'our assay'): antiandrogenic; also recorded: in vitro AR antagonists
Cytotoxic EC20 (μM) MDA-kb2 (MDA-kb2 cells): 33.9 µM
Cytotoxic EC20 (μM) YAS (yeast): > 150 µM
Androgen EC20 (μM) MDA-kb2 (androgen receptor (AR) [2]; [3]): Neg

CO/C=C(/C(=O)OC)c1ccccc1Oc1cc(Oc2ccccc2C#N)ncn1 [Azoxystrobin]
Antiandrogen IC20 (μM) MDA-kb2 (androgen receptor (AR) [1]): Neg
Cytotoxic EC20 (μM) MDA-kb2 (MDA-kb2 cells): 2.9 µM
Androgen EC20 (μM) MDA-kb2 (androgen receptor (AR) [2]; [3]): Neg

CC(C)OC(=O)C(O)(c1ccc(Br)cc1)c1ccc(Br)cc1 [Bromopropylate]
IC20 (androgen receptor (AR) [1]): 0.54 µM
Antiandrogenic activity in the MDA-kb2 assay (in words) (androgen receptor (AR) [1]; MDA-kb2 / 'our assay'): in vitro AR antagonists
ERR (environmental relevance ratio) (androgen receptor (AR) [1]; [4]): 24.1
Cytotoxic EC20 (μM) MDA-kb2 (MDA-kb2 cells): 27.2 µM
Androgen EC20 (μM) MDA-kb2 (androgen receptor (AR) [2]; [3]): Neg

CC(C)OC(=O)Nc1cccc(Cl)c1 [Chlorpropham]
Cytotoxic EC20 (μM) MDA-kb2 (MDA-kb2 cells): > 50 µM
Cytotoxic EC20 (μM) YAS (yeast): > 40 µM

Cc1cc(C2CC2)nc(Nc2ccccc2)n1 [Cyprodinil]
Cytotoxic EC20 (μM) MDA-kb2 (MDA-kb2 cells): > 50 µM

OC(c1ccc(Cl)cc1)(c1ccc(Cl)cc1)C(Cl)(Cl)Cl [Dicofol]
Cytotoxic EC20 (μM) MDA-kb2 (MDA-kb2 cells): 29.0 µM

CC1COC(Cn2cncn2)(c2ccc(Oc3ccc(Cl)cc3)cc2Cl)O1 (stereo not shown) [Difenoconazole]
Cytotoxic EC20 (μM) MDA-kb2 (MDA-kb2 cells): 2.91 µM
Cytotoxic EC20 (μM) YAS (yeast): 0.109 µM
Cytotoxicity in the YAS assay (in words) (yeast): cytotoxic

O=S1OCC2C(CO1)C1(Cl)C(Cl)=C(Cl)C2(Cl)C1(Cl)Cl (stereo not shown) [Endosulfan]
Antiandrogenic activity in the MDA-kb2 assay (in words) (androgen receptor (AR) [1]): in vitro AR antagonists
ERR (environmental relevance ratio) (androgen receptor (AR) [1]): 3.1
IC20 (androgen receptor (AR) [1]): 6.05 µM
Cytotoxic EC20 (μM) MDA-kb2 (MDA-kb2 cells): 33.8 µM
Androgen EC20 (μM) MDA-kb2 (androgen receptor (AR) [2]): Neg

COP(=S)(OC)Oc1ccc([N+](=O)[O-])c(C)c1 [Fenitrothion]
Cytotoxic EC20 (μM) MDA-kb2 (MDA-kb2 cells): > 50 µM

COC(=O)N(C(=O)N1CO[C@@]2(C(=O)OC)Cc3cc(Cl)ccc3C2=N1)c1ccc(OC(F)(F)F)cc1 [Indoxacarb]
Antiandrogen IC20 (μM) MDA-kb2 (androgen receptor (AR) [1]): Neg
Cytotoxic EC20 (μM) MDA-kb2 (MDA-kb2 cells): 11.3 µM
Androgen EC20 (μM) MDA-kb2 (androgen receptor (AR) [2]; [3]): Neg

C#CCOc1ccc(CCNC(=O)C(OCC#C)c2ccc(Cl)cc2)cc1OC (stereo not shown) [Mandipropamid]
Antiandrogen IC20 (μM) MDA-kb2 (androgen receptor (AR) [1]): Neg
Cytotoxic EC20 (μM) MDA-kb2 (MDA-kb2 cells): 8.92 µM
Androgen EC20 (μM) MDA-kb2 (androgen receptor (AR) [2]; [3]): Neg

CNC(=O)Oc1cc(C)c(SC)c(C)c1 [Methiocarb]
IC20 (androgen receptor (AR) [1]): 6.82 µM
ERR (environmental relevance ratio) (androgen receptor (AR) [1]; [4]): 2.5
Cytotoxic EC20 (μM) MDA-kb2 (MDA-kb2 cells): > 46 µM
Androgen EC20 (μM) MDA-kb2 (androgen receptor (AR) [2]; [3]): Neg

O=C(NC(=O)c1c(F)cccc1F)Nc1ccc(OC(F)(F)C(F)OC(F)(F)F)c(Cl)c1 (stereo not shown) [Novaluron]
Cytotoxic EC20 (μM) MDA-kb2 (MDA-kb2 cells): > 50 µM

Oc1ccccc1-c1ccccc1 [O-Phenylphenol]
Cytotoxic EC20 (μM) MDA-kb2 (MDA-kb2 cells): > 50 µM

CCCSP(=O)(OCC)Oc1ccc(Br)cc1Cl (stereo not shown) [Profenofos]
Cytotoxic EC20 (μM) MDA-kb2 (MDA-kb2 cells): 8.61 µM

C#CCOS(=O)OC1CCCCC1Oc1ccc(C(C)(C)C)cc1 (stereo not shown) [Propargite]
Cytotoxic EC20 (μM) MDA-kb2 (MDA-kb2 cells): 0.487 µM

COC(=O)N(OC)c1ccccc1COc1ccn(-c2ccc(Cl)cc2)n1 [Pyraclostrobin]
Cytotoxic EC20 (μM) MDA-kb2 (MDA-kb2 cells): 0.089 µM

Cc1cc(C)nc(Nc2ccccc2)n1 [Pyrimethanil]
Cytotoxic EC20 (μM) MDA-kb2 (MDA-kb2 cells): > 125 µM
Cytotoxic EC20 (μM) YAS (yeast): 167 µM
Cytotoxicity in the YAS assay (in words) (yeast): cytotoxic

Fc1ccc(Oc2ccnc3cc(Cl)cc(Cl)c23)cc1 [Quinoxyfen]
Cytotoxic EC20 (μM) MDA-kb2 (MDA-kb2 cells): 10.1 µM
Cytotoxic EC20 (μM) YAS (yeast): > 75 µM

CCOC(=O)OC1=C(c2cc(C)ccc2C)C(=O)N[C@]12CC[C@@H](OC)CC2 [Spirotetramat]
Cytotoxic EC20 (μM) MDA-kb2 (MDA-kb2 cells): > 50 µM

CCCN(CC)CC1COC2(CCC(C(C)(C)C)CC2)O1 (stereo not shown) [Spiroxamine]
Cytotoxic EC20 (μM) MDA-kb2 (MDA-kb2 cells): 9.29 µM

C=CC1(C)OC(=O)N(c2cc(Cl)cc(Cl)c2)C1=O (stereo not shown) [Vinclozolin]
Cytotoxic EC20 (μM) MDA-kb2 (MDA-kb2 cells): > 50 µM

CC(C)C(=O)Nc1ccc([N+](=O)[O-])c(C(F)(F)F)c1 [flutamide, reference compound]
Cytotoxicity in the MDA-kb2 assay (in words) (MDA-kb2 cells): overlap of toxic effects on the cells with antiandrogenic activity

ClC(Cl)=C(c1ccc(Cl)cc1)c1ccc(Cl)cc1 [p,p′-DDE, p,p′-1,1-bis-(4-chlorophenyl)-2,2-dichloroethene]
Cytotoxic EC20 (μM) MDA-kb2 (MDA-kb2 cells): > 50 µM

CC1(C)C(/C=C(\Cl)C(F)(F)F)C1C(=O)OC(C#N)c1cccc(Oc2ccccc2)c1 (stereo not shown) [λ-Cyhalothrin]
Cytotoxic EC20 (μM) MDA-kb2 (MDA-kb2 cells): 51.4 µM
Cytotoxic EC20 (μM) YAS (yeast): > 200 µM

Spinosad
Antiandrogen IC20 (μM) MDA-kb2 (androgen receptor (AR) [1]): Neg
Cytotoxic EC20 (μM) MDA-kb2 (MDA-kb2 cells): 13.1 µM
Androgen EC20 (μM) MDA-kb2 (androgen receptor (AR) [2]; [3]): Neg
